Source: article PMC2698315 (Journal of Chemical Biology, 2008)

Assays:
[1] = system: Vascular endothelial protein tyrosine phosphatase (VE-PTP); experiment: Phosphatase inhibition assay; type: biochemical; settings: 4PL fit, 37 °C, 1 mM substrate, Fig. 3b (quadrant 2)
[2] = biological target: vaccinia virus VH1-related (VHR) phosphatase (Homo sapiens, UniProt P51452); type: biochemical; settings: 4PL fit, 37 °C, 5 mM substrate, Fig. 3a (quadrant 3)
Chain of vaccinia virus VH1-related (VHR) phosphatase (P51452 whole entry): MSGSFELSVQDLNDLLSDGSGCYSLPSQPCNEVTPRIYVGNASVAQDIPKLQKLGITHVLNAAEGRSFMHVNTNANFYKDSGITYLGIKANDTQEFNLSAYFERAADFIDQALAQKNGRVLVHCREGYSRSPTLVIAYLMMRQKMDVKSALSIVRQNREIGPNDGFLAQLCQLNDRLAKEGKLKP

SMILES | Hill coefficient [1] | Hill coefficient [2]
O=C(O[C@@H]1Cc2c(O)cc(O)cc2O[C@@H]1c1cc(O)c(O)c(O)c1)c1cc(O)c(O)c(O)c1 [compound 172, Epigallocatechin-3-monogallate] | 0.55 | –
CC(C)(c1ccc(NS(=O)(=O)C(F)(F)F)cc1)c1ccc(C(C)(C)c2ccc(NS(=O)(=O)C(F)(F)F)cc2)cc1 [compound 281, bis(4-trifluoromethylsulfonamidophenyl)-1,4-diisopropylbenzene] | – | 2.7
